Usually melting point stands for the temperature, or range, at which the solid turns liquid. As for `CCC(=O)Nc1ccc(Sc2nc(Nc3cc(C)n[nH]3)cc(N3CC(C)NC(C)C3)n2)cc1` (centres unmarked) [Compound I-19], the melting point was in the range of 151 to 152 °C.

In the case of `CCC(=O)Nc1ccc(Sc2nc(Nc3cc(C)n[nH]3)cc(N3CCC(N)C3)n2)cc1` (centres unmarked) [Compound I-20], the melting point lay in the range of 159 to 160 °C. Next, `Cc1cc(Nc2cc(NCCN3CCCC3)nc(Sc3ccc(NC(=O)C4CC4)cc3)n2)[nH]n1` [Compound I-29]: 220 to 222 °C. `N#CCCN1CCN(c2cc(Nc3ccn[nH]3)nc(Sc3ccc(NC(=O)C4CC4)cc3)n2)CC1` [Compound I-37] registered a melting point of 131 to 132 °C. Regarding `CS(=O)(=O)N1CCN(c2cc(Nc3ccn[nH]3)nc(Sc3ccc(NC(=O)C4CC4)cc3)n2)CC1` [Compound I-42], the melting point is 168 to 169 °C. Consider `CS(=O)(=O)CCN1CCN(c2cc(Nc3ccn[nH]3)nc(Sc3ccc(NC(=O)C4CC4)cc3)n2)CC1` [Compound I-45], for which the melting point fell in the range of 154 to 155 °C.

In turn, `CC1CN(c2cc(Nc3ccn[nH]3)nc(Sc3ccc(NC(=O)C4CC4)cc3)n2)CCN1` (centres unmarked) [Compound I-46] returned a melting point of 160 to 161 °C.

Compound `O=C(Nc1ccc(Sc2nc(Nc3ccn[nH]3)cc(N3CCN(CC(=O)N4CCOCC4)CC3)n2)cc1)C1CC1` [Compound I-47] yielded a melting point of 158 to 159 °C.

The compound `CC(C)(C)N1CCN(c2cc(Nc3ccn[nH]3)nc(Sc3ccc(NC(=O)C4CC4)cc3)n2)CC1` [Compound I-53] displayed a melting point of 167 to 169 °C. For the compound `Cc1cc(Nc2cc(N3CCOCC3)nc(Sc3ccc(NC(=O)C4CC4)cc3)n2)[nH]n1` [Compound I-61], the melting point was in the range of 238 to 239 °C. `Cc1cc(Nc2cc(N3CCNCC3)nc(Sc3ccc(NC(=O)C(C)(C)C)cc3)n2)[nH]n1` [Compound V-3]: the melting point lay within 178 to 181 °C.

Source of the values: patent publication US8268829B2, “Substituted pyrimidines useful as protein kinase inhibitors” (Vertex Pharmaceuticals Inc., priority 2002, dated 2012).
